Paper PMC10771296, “Plectasin: from evolution to truncation, expression, and better druggability” (Frontiers in Microbiology, 2023)
In brackets after ≈: the same amount, converted by molar mass. Where a SMILES comes first, the peptide text is derived from it. Bridges are numbered along the chain shown (N, C = ends).

Columns and labels:
[1] = test system: S. agalactiae ATCC13813; assay: MIC/MBC, micro broth dilution; format: cell-based
Method: (§1) The minimum inhibitory concentration (MIC) of the peptides was assayed using the micro broth dilution method, which is an important indicator of the antibacterial activity of the AMPs ([Liu et al., 2021]). […] The MIC was defined as the lowest concentration of ones at which no visible bacterial growth was observed. All the assays were repeated thrice.

[2] = test system: E. coli ATCC25922; assay: MIC, micro broth dilution; format: cell-based; settings: 1 × 10^5 CFU/mL, repeated thrice
Method: as §1

[3] = test system: P. aeruginsoa CICC21630; assay: MIC, micro broth dilution; format: cell-based; settings: 1 × 10^5 CFU/mL, repeated thrice
Method: as §1

[4] = test system: S. enteriditis CVCC3377; assay: MIC, micro broth dilution; format: cell-based; settings: 1 × 10^5 CFU/mL, repeated thrice
Method: as §1

[5] = test system: Shigella CMCC3926; assay: MIC, micro broth dilution; format: cell-based; settings: 1 × 10^5 CFU/mL, repeated thrice
Method: as §1

[6] = test system: Streptococcus; assay: MIC, summary over the panel; format: cell-based; settings: including S. agalactiae ATCC13813, S. dysgalactiae CVCC3938, S. agalactiae CAU-FRI-2022-02
Method: as §1

[7] = test system: gram-negative bacteria; assay: MIC, summary over the panel; format: cell-based; settings: summary of the panel
Method: as §1

[8] = test system: S. aureus ATCC43300; assay: Post-antibiotic effect; format: cell-based, Staphylococcus aureus; settings: 2 h exposure, 1 × 10^8 CFU/mL, then diluted 1,000 times
Method: They were incubated at 37°C and 250 rpm, sampled, and coated on MHA plates for colony counting every hour. Phosphate-buffered saline (PBS) was used as a negative control, and vancomycin was used as a positive control. The calculation formula for the Post-antibiotic effect (PAE) was based on previous study ([Wu et al., 2022]).

[9] = test system: murine macrophage RAW 264.7; assay: Cytotoxicity, MTT assay; format: cell-based, mouse
Method: The cytotoxicity of Ple-AB toward the murine macrophage RAW 264.7 (Peking Union Medical College) was tested using the MTT assay ([Wang et al., 2018]). Cells (2.5 × 10^4 CFU/mL) were incubated at 37°C for 24 h, and thereafter Ple-AB at a concentration of 2–256 μg/mL was added for 24 h. The supernatant was washed twice, […] 3-(4,5-dimethylthiazol-2-yl)-2,5-diphenyltetrazolium bromide (MTT) solution was added, and the mixture was incubated for 4 h. The absorbance of each well was measured at 570 nm using a microplate reader. PBS (Acontrol) was used as the control. Survival rate (%) = (A/Acontrol) × 100 was calculated.

[10] = test system: ICR mice; assay: In vivo safety: body weight and HE histology; settings: 10 mg/kg i.p. for six consecutive days
Method: (§2) Eight 6-week-old ICR mice were randomly divided into two groups and injected intraperitoneally with Ple-AB (10 mg/kg, body weight) and saline for six consecutive days. […] They were weighed daily, and blood was collected on the 7th day for hematological and biochemical analyses. Simultaneously, the heart, liver, spleen, lungs, and kidneys were collected for tissue fixation and hematoxylin–eosin (HE) staining to observe any pathological changes ([Shishkina et al., 2023]).

[11] = test system: ICR mice; assay: In vivo safety: hematological indices; design: RDW-CV / MCHC: unit not given here; settings: 10 mg/kg i.p. for six consecutive days, blood on 7th day
Method: as §2

[12] = test system: ICR mice; assay: In vivo safety: serum biochemical indices; settings: 10 mg/kg i.p. for six consecutive days
Method: as §2

[13] = test system: S. aureus ATCC43300; assay: pH stability read out as MIC; format: physicochemical, Staphylococcus aureus; settings: for MIC after pH treatment: triplicates
Method: (§3) The stability of Ple-AB was assessed based on its antibacterial activity against S. aureus ATCC43300. Temperature stability was determined by incubation at 20, 40, 60, 80, and 100°C for 1 h ([Li et al., 2020]). The pH stability was determined by incubation in buffers with a pH of 2, 4, 6, 8, and 10 for 4 h ([Yang et al., 2017]). The peptides were incubated with different concentrations of metal ions, serum, artificial gastric fluid, and simulated intestinal fluid to assess their stability in the blood and intestines ([Lyu et al., 2019]). All the treatments were performed in triplicates.

[14] = test system: S. aureus ATCC43300; assay: Salt (metal ion) stability read out as MIC; format: cell-based, Staphylococcus aureus; settings: triplicates
Method: as §3

[15] = test system: S. aureus ATCC43300; assay: Stability in simulated (artificial) intestinal fluid read out as MIC; format: in vitro ADME, Staphylococcus aureus
Method: as §3

[16] = test system: S. aureus ATCC43300; assay: Serum stability read out as MIC; format: in vitro ADME, Staphylococcus aureus; settings: 1–8 h, triplicates
Method: as §3

## CC[C@H](C)[C@@H]1NC(=O)[C@H](CO)NC(=O)[C@H](CCCCN)NC(=O)[C@@H]2CSSC[C@@H](C(=O)N[C@@H](Cc3ccc(O)cc3)C(=O)O)NC(=O)[C@H](CCCCN)NC(=O)[C@@H]3CSSC[C@H](NC(=O)[C@H](CCC(N)=O)NC(=O)[C@H](CCSC)NC(=O)[C@H](CCC(=O)O)NC(=O)[C@H](CC(=O)O)NC(=O)[C@H](Cc4c[nH]c5ccccc45)NC(=O)[C@@H]4CCCN4C(=O)[C@@H](NC(=O)CNC(=O)[C@H](Cc4ccccc4)NC(=O)CN)CSSC[C@H](NC(=O)[C@H](Cc4ccc(O)cc4)NC(=O)CNC(=O)CNC(=O)[C@H](CCCCN)NC(=O)[C@H](Cc4ccc(O)cc4)NC(=O)CNC(=O)[C@H](CCCCN)NC1=O)C(=O)N[C@@H](C)C(=O)N[C@@H](CCCCN)C(=O)NCC(=O)NCC(=O)N[C@@H](Cc1ccccc1)C(=O)N[C@@H](C(C)C)C(=O)N3)C(=O)N[C@@H](Cc1c[nH]cn1)C(=O)N[C@@H](CC(N)=O)C(=O)N[C@@H](Cc1c[nH]cn1)C(=O)N2 [Ple-AB] (H-GFGCPWDEMQCHNHCKSIKGYKGGYCAKGGFVCKCY-OH; disulfide 4-26, 11-33, 15-35; N-terminus and C-terminus assumed)
[1]; S. agalactiae ATCC13813
  MBC: 4 µg/mL (≈ 1 µM)
[1]; micro broth dilution, 1 × 10^5 CFU/mL, repeated thrice
  MIC: 4 µg/mL (≈ 1 µM)
[2]
  MIC: >128 µg/mL
[3]
  MIC: >128 µg/mL
[4]
  MIC: >128 µg/mL
[5]
  MIC: >128 µg/mL
[6]
  MICs, range over Streptococcus: 2 to 4 µg/mL
[7]
  Activity against gram-negative bacteria: inactive
[8]; 1× MIC
  PAE (post-antibiotic effect): 1.15 h
[8]; 2× MIC
  PAE (post-antibiotic effect): 1.18 h
[8]; 4× MIC
  PAE (post-antibiotic effect): 2.25 h
[9]; RAW264.7, 256 μg/mL
  Cytotoxicity: < 1%
[9]; RAW264.7, 2–256 μg/mL, 24 h, MTT, A570
  Cell survival rate: above 80%
[10]; one week after injection, vs saline
  Histological morphology of heart, liver, spleen, lungs, kidneys (HE staining): no differences in histological morphology
[10]; weighed daily
  Body weight change: slight tendency to lose weight on the second day after the injection
[11]
  BASO: 0.09 ± 0.027 10^9/L
  BASO %: 1.09 ± 0.34%
  EO: 0.19 ± 0.106 10^9/L
  EO %: 2.33 ± 1.24%
  HBG: 128 ± 12 g/L
  HCT %: 41.3 ± 2.4%
  LYM: 5.89 ± 0.585 10^9/L
  LYM %: 74.8 ± 3.02%
  MCH: 13.48 ± 0.67 pg
  MCHC: 32.86 ± 1.73
  MCV: 41.73 ± 1.17 fL
  MONO: 0.24 ± 0.066 10^9/L
  MONO %: 3 ± 0.49%
  MPV: 6.63 ± 0.57 fL
  NEUT: 1.49 ± 0.354 10^9/L
  NEUT %: 18.78 ± 1.66%
  PCT %: 0.02 ± 0.01%
  PDW %: 15.85 ± 0.75%
  PLCR %: 15.35 ± 3.65%
  PLT: 782.3 ± 48.25 10^9/L
  RBC: 9.44 ± 0.82 10^12/L
  RDW-CV: 18.58 ± 1.97
  RDW-SD %: 44.55 ± 3.65%
  WBC: 7.89 ± 0.94 10^9/L
  Whole blood cell profiles versus control group: not significantly different
[12]; blood on 7th day
  Serum biochemical indices versus control group: not significantly different
[12]; serum on 7th day
  ALT: 49.07 ± 6.21 IU/L
  AST: 25.85 ± 2.33 IU/L
  Albumin: 35.59 ± 4.58 g/L
  Ca^2+: 1.38 ± 0.06 mmol/L
  Creatinine: 83.13 ± 4.57 µmol/L
  Globulin: 18.82 ± 0.25 g/L
  Glucose: 1.59 ± 0.15 mmol/L
  Phosphorous: 3.33 ± 0.20 mmol/L
  Total protein: 54.41 ± 4.56 g/L
  Urea Nitrogen: 11.6 ± 0.8 mmol/L
[13]; buffer pH 2, 4 h
  MIC after pH treatment: 16 μg/mL
[13]; buffer pH 4, 4 h
  MIC after pH treatment: 16 μg/mL
[13]; buffer pH 6, 4 h
  MIC after pH treatment: 16 μg/mL
[13]; buffer pH 8, 4 h
  MIC after pH treatment: 16 μg/mL
[13]; buffer pH 10, 4 h
  MIC after pH treatment: 32 μg/mL
[13]; pH 10, 4 h, versus control
  Increase of MIC after pH treatment: twofold
[14]; Ca^2+ (2.5 mM)
  MIC with salts: 16 µg/mL
[14]; Fe^3+ (4 μM)
  MIC with salts: 16 µg/mL
[14]; K^+ (4.5 mM)
  MIC with salts: 16 µg/mL
[14]; Mg^2+ (1 mM)
  MIC with salts: 16 µg/mL
[14]; NH4^+ (6 μM)
  MIC with salts: 16 µg/mL
[14]; Na^+ (150 mM)
  MIC with salts: 16 µg/mL
[14]; Zn^2+ (8 μM)
  MIC with salts: 16 µg/mL
[15]; Artificial Intestinal Fluid (trypsin), 1 h, read-out MIC, triplicates
  MIC after Artificial Intestinal Fluid: 32 µg/mL (≈ 8 µM)
[15]; simulated intestinal fluids (trypsin), 1 h (lasted for 2 h), from MIC
  Remaining share of initial activity after simulated intestinal fluids: approximately 50%
[16]; Serum (25%)
  MIC after serum: 16 µg/mL (≈ 4 µM)
[16]; Serum (50%)
  MIC after serum: 16 µg/mL (≈ 4 µM)
